{"source": "paper PMC3494675", "about": "“Structure-Function Analysis of the Glioma Targeting NFL-TBS.40-63 Peptide Corresponding to the Tubulin-Binding Site on the Light Neurofilament Subunit” (PLoS ONE, 2012)", "key": {"[1]": {"system": "T98G human glioblastoma cells", "assay": "Peptide incorporation into T98G cells (immunocytochemistry, cell counting)", "type": "cell-based", "settings": "6 hours; for Peptide incorporation (% of cells): T98G cells, 10 µM biotinylated peptide, Alexa-labeled avidin/streptavidin fluorescence microscopy, minimum 200 cells per experiment, mean ± S.E.M., triplicated; for Cell penetration / internalization in T98G cells (in words): 10 µM, immunocytochemistry, compared to original NFL-TBS.40-63", "procedure": "(§1) Cells containing the biotinylated peptide were detected using Alexa-labeled avidin (green fluorescence) and those displaying a normal or a destroyed MT network were detected with an anti-tubulin antibody (red fluorescence) ( Figure 1A-B ). Then, we counted a minimum of 200 cells per slide containing or not the peptide, and with a normal or destroyed microtubule network ( Figure 1C ). As illustrated on Figure 1A glioblastoma cells contain a rich MT network. […] Cells were plated on cover slips and cultured in media containing biotinylated peptides (10 μM) for 6 hours. […] The cells were then incubated during 10 min in a 0.5% triton X-100 permeabilization solution, and washed 3 times in PBS. Next, they were incubated in a blocking solution (PBS 5% BSA) for 15 min, then incubated with mouse anti-ß-tubulin antibody (Sigma) 1/200 overnight. Tubulin and biotinylated peptides were localized using respectively Alexa 568 nm anti-mouse antibody and streptavidin Alexa 488 nm (Molecular Probes) 1/200 for 1 hour, followed by washing in PBS. […] Sigma) for 5 min, washed twice with PBS, then cover slips were mounted with an antifading solution. Observations were performed with an Olympus confocal microscope (BX50) using Fluoview.3.1. Software or a Leica DMI6000 inverted microscope and analyzed with Metamorph 7.1.7.0. software. We counted cells containing the peptide and cells displaying a destroyed MT network. Experiments were repeated at least three times, and a minimum of 200 cells was scored during each experiment."}, "[2]": {"system": "T98G human glioblastoma cells", "assay": "Disintegration of the microtubule network in T98G cells (anti-tubulin immunostaining, cell counting)", "type": "cell-based", "settings": "6 hours; for Disintegration of MT (% of cells): T98G cells, 10 µM biotinylated peptide, anti-tubulin immunostaining, minimum 200 cells per experiment, mean ± S.E.M., triplicated; for Effect on MT network of T98G / glioma cells (in words): 10 µM, immunocytochemistry", "procedure": "as §1"}}, "note": "Peptide text beside a SMILES is read from it. * marks the point of attachment. Biotin = O=C1N[C@H]2[C@H](CS[C@H]2CCCCC(=O)*)N1", "data": [{"smiles": "CC(C)C[C@H](NC(=O)[C@H](CO)NC(=O)[C@H](CO)NC(=O)[C@H](CO)NC(=O)[C@@H](NC(=O)[C@@H]1CCCN1C(=O)[C@H](C)NC(=O)[C@H](CO)NC(=O)[C@H](Cc1ccc(O)cc1)NC(=O)[C@H](C)NC(=O)[C@H](CO)NC(=O)[C@H](Cc1ccc(O)cc1)NC(=O)CCCC[C@@H]1SC[C@@H]2NC(=O)N[C@@H]21)C(C)C)C(=O)N[C@@H](CO)C(=O)N[C@H](C(=O)N[C@@H](CCCNC(=N)N)C(=O)N[C@@H](CCCNC(=N)N)C(=O)N[C@@H](CO)C(=O)N[C@@H](Cc1ccc(O)cc1)C(=O)N[C@@H](CO)C(=O)N[C@@H](CO)C(=O)N[C@@H](CO)C(=O)N[C@@H](CO)C(=O)NCC(=O)N[C@@H](CO)C(N)=O)C(C)C", "note": "[Ser3Ala] (Biotin-YSAYSAPVSSSLSVRRSYSSSSGS-NH2)", "values": [{"measurement": "Peptide incorporation (% of cells)", "setting": "[1]", "result": "0.8±1.2 % of cells"}, {"measurement": "Disintegration of MT (% of cells)", "setting": "[2]", "result": "19.1±0.9 % of cells"}]}, {"smiles": "CC(C)C[C@H](NC(=O)[C@H](CO)NC(=O)[C@H](CO)NC(=O)[C@H](CO)NC(=O)[C@@H](NC(=O)[C@@H]1CCCN1C(=O)[C@H](C)NC(=O)[C@H](CO)NC(=O)[C@H](Cc1ccc(O)cc1)NC(=O)[C@H](CO)NC(=O)[C@H](CO)NC(=O)[C@H](Cc1ccc(O)cc1)NC(=O)CCCC[C@@H]1SC[C@@H]2NC(=O)N[C@@H]21)C(C)C)C(=O)N[C@@H](CO)C(=O)N[C@H](C(=O)N[C@@H](CCCNC(=N)N)C(=O)N[C@@H](CCCCN)C(=O)N[C@@H](CO)C(=O)N[C@@H](Cc1ccc(O)cc1)C(=O)N[C@@H](CO)C(=O)N[C@@H](CO)C(=O)N[C@@H](CO)C(=O)N[C@@H](CO)C(=O)NCC(=O)N[C@@H](CO)C(N)=O)C(C)C", "note": "[Arg16Lys] (Biotin-YSSYSAPVSSSLSVRKSYSSSSGS-NH2)", "values": [{"measurement": "Peptide incorporation (% of cells)", "setting": "[1]", "result": "32.9±1.3 % of cells"}, {"measurement": "Disintegration of MT (% of cells)", "setting": "[2]", "result": "36.9±0.9 % of cells"}]}, {"smiles": "CC(C)C[C@H](NC(=O)[C@H](CO)NC(=O)[C@H](CO)NC(=O)[C@H](CO)NC(=O)[C@@H](NC(=O)[C@@H]1CCCN1C(=O)[C@H](C)NC(=O)[C@H](CO)NC(=O)[C@H](Cc1ccc(O)cc1)NC(=O)[C@H](CO)NC(=O)[C@H](CO)NC(=O)[C@H](Cc1ccc(O)cc1)NC(=O)CCCC[C@@H]1SC[C@@H]2NC(=O)N[C@@H]21)C(C)C)C(=O)N[C@@H](CO)C(=O)N[C@H](C(=O)N[C@@H](CCCNC(=N)N)C(=O)N[C@@H](CCCNC(=N)N)C(=O)N[C@@H](CC(=O)O)C(=O)N[C@@H](Cc1ccc(O)cc1)C(=O)N[C@@H](CO)C(=O)N[C@@H](CO)C(=O)N[C@@H](CO)C(=O)N[C@@H](CO)C(=O)NCC(=O)N[C@@H](CO)C(N)=O)C(C)C", "note": "[Ser17Asp] (Biotin-YSSYSAPVSSSLSVRRDYSSSSGS-NH2)", "values": [{"measurement": "Cell penetration / internalization in T98G cells (in words)", "setting": "[1]", "result": "decreased internalization"}, {"measurement": "Peptide incorporation (% of cells)", "setting": "[1]", "result": "31.3±11.2 % of cells"}, {"measurement": "Effect on MT network of T98G / glioma cells (in words)", "setting": "[2]", "result": "not altered"}, {"measurement": "Disintegration of MT (% of cells)", "setting": "[2]", "result": "22.2±3.4 % of cells"}]}, {"smiles": "CC(C)C[C@H](NC(=O)[C@H](CO)NC(=O)[C@H](CO)NC(=O)[C@H](CO)NC(=O)[C@@H](NC(=O)[C@@H]1CCCN1C(=O)[C@H](C)NC(=O)[C@H](CO)NC(=O)[C@H](Cc1ccc(O)cc1)NC(=O)[C@H](CO)NC(=O)[C@H](CO)NC(=O)[C@H](Cc1ccc(O)cc1)NC(=O)CCCC[C@@H]1SC[C@@H]2NC(=O)N[C@@H]21)C(C)C)C(=O)N[C@@H](CO)C(=O)N[C@H](C(=O)N[C@@H](CCCNC(=N)N)C(=O)N[C@@H](CCCNC(=N)N)C(=O)N[C@@H](C)C(=O)N[C@@H](Cc1ccc(O)cc1)C(=O)N[C@@H](CO)C(=O)N[C@@H](CO)C(=O)N[C@@H](CO)C(=O)N[C@@H](CO)C(=O)NCC(=O)N[C@@H](CO)C(N)=O)C(C)C", "note": "[Ser17Ala] (Biotin-YSSYSAPVSSSLSVRRAYSSSSGS-NH2)", "values": [{"measurement": "Peptide incorporation (% of cells)", "setting": "[1]", "result": "4.6±1.8 % of cells"}, {"measurement": "Disintegration of MT (% of cells)", "setting": "[2]", "result": "18.1±4.4 % of cells"}]}, {"smiles": "CC(C)C[C@H](NC(=O)[C@H](CO)NC(=O)[C@H](CO)NC(=O)[C@H](CO)NC(=O)[C@@H](NC(=O)[C@@H]1CCCN1C(=O)[C@H](C)NC(=O)[C@H](CO)NC(=O)[C@H](Cc1ccc(O)cc1)NC(=O)[C@H](CO)NC(=O)[C@H](CO)NC(=O)[C@H](Cc1ccc(O)cc1)NC(=O)CCCC[C@@H]1SC[C@@H]2NC(=O)N[C@@H]21)C(C)C)C(=O)N[C@@H](C)C(=O)N[C@H](C(=O)N[C@@H](CCCNC(=N)N)C(=O)N[C@@H](CCCNC(=N)N)C(=O)N[C@@H](CO)C(=O)N[C@@H](Cc1ccc(O)cc1)C(=O)N[C@@H](CO)C(=O)N[C@@H](CO)C(=O)N[C@@H](CO)C(=O)N[C@@H](CO)C(=O)NCC(=O)N[C@@H](CO)C(N)=O)C(C)C", "note": "[Ser13Ala] (Biotin-YSSYSAPVSSSLAVRRSYSSSSGS-NH2)", "values": [{"measurement": "Peptide incorporation (% of cells)", "setting": "[1]", "result": "12.2±0.8 % of cells"}, {"measurement": "Disintegration of MT (% of cells)", "setting": "[2]", "result": "16.6±5.2 % of cells"}]}, {"smiles": "CC(C)[C@H](NC(=O)[C@H](CO)NC(=O)[C@H](C)NC(=O)[C@H](CO)NC(=O)[C@H](CO)NC(=O)[C@H](CO)NC(=O)[C@@H](NC(=O)[C@@H]1CCCN1C(=O)[C@H](C)NC(=O)[C@H](CO)NC(=O)[C@H](Cc1ccc(O)cc1)NC(=O)[C@H](CO)NC(=O)[C@H](CO)NC(=O)[C@H](Cc1ccc(O)cc1)NC(=O)CCCC[C@@H]1SC[C@@H]2NC(=O)N[C@@H]21)C(C)C)C(=O)N[C@@H](CCCNC(=N)N)C(=O)N[C@@H](CCCNC(=N)N)C(=O)N[C@@H](CO)C(=O)N[C@@H](Cc1ccc(O)cc1)C(=O)N[C@@H](CO)C(=O)N[C@@H](CO)C(=O)N[C@@H](CO)C(=O)N[C@@H](CO)C(=O)NCC(=O)N[C@@H](CO)C(N)=O", "note": "[Leu12Ala] (Biotin-YSSYSAPVSSSASVRRSYSSSSGS-NH2)", "values": [{"measurement": "Peptide incorporation (% of cells)", "setting": "[1]", "result": "0 % of cells"}, {"measurement": "Disintegration of MT (% of cells)", "setting": "[2]", "result": "15.5±2.8 % of cells"}]}, {"smiles": "CC(C)C[C@H](NC(=O)[C@H](CO)NC(=O)[C@H](CO)NC(=O)[C@H](CO)NC(=O)[C@@H](NC(=O)[C@@H]1CCCN1C(=O)[C@H](C)NC(=O)[C@H](CO)NC(=O)[C@H](Cc1ccc(O)cc1)NC(=O)[C@H](CO)NC(=O)[C@H](CO)NC(=O)[C@H](Cc1ccc(O)cc1)NC(=O)CCCC[C@@H]1SC[C@@H]2NC(=O)N[C@@H]21)C(C)C)C(=O)N[C@@H](CO)C(=O)N[C@H](C(=O)N[C@@H](CCCNC(=N)N)C(=O)N[C@@H](CCCNC(=N)N)C(=O)N[C@@H](CO)C(=O)N[C@@H](Cc1ccc(O)cc1)C(=O)N[C@@H](CO)C(=O)N[C@@H](C)C(=O)N[C@@H](CO)C(=O)N[C@@H](CO)C(=O)NCC(=O)N[C@@H](CO)C(N)=O)C(C)C", "note": "[Ser20Ala] (Biotin-YSSYSAPVSSSLSVRRSYSASSGS-NH2)", "values": [{"measurement": "Peptide incorporation (% of cells)", "setting": "[1]", "result": "6.4±1.2 % of cells"}, {"measurement": "Disintegration of MT (% of cells)", "setting": "[2]", "result": "16.4±6.4 % of cells"}]}, {"smiles": "CC(C)C[C@H](NC(=O)[C@H](CO)NC(=O)[C@H](CO)NC(=O)[C@H](CO)NC(=O)[C@@H](NC(=O)[C@@H]1CCCN1C(=O)[C@H](C)NC(=O)[C@H](CO)NC(=O)[C@H](Cc1ccc(O)cc1)NC(=O)[C@H](CO)NC(=O)[C@H](CO)NC(=O)[C@H](Cc1ccc(O)cc1)NC(=O)CCCC[C@@H]1SC[C@@H]2NC(=O)N[C@@H]21)C(C)C)C(=O)N[C@@H](CO)C(=O)N[C@H](C(=O)N[C@@H](CCCNC(=N)N)C(=O)N[C@@H](C)C(=O)N[C@@H](CO)C(=O)N[C@@H](Cc1ccc(O)cc1)C(=O)N[C@@H](CO)C(=O)N[C@@H](CO)C(=O)N[C@@H](CO)C(=O)N[C@@H](CO)C(=O)NCC(=O)N[C@@H](CO)C(N)=O)C(C)C", "note": "[Arg16Ala] (Biotin-YSSYSAPVSSSLSVRASYSSSSGS-NH2)", "values": [{"measurement": "Peptide incorporation (% of cells)", "setting": "[1]", "result": "0 % of cells"}, {"measurement": "Disintegration of MT (% of cells)", "setting": "[2]", "result": "15.6±3.0 % of cells"}]}, {"smiles": "CC(C)C[C@H](NC(=O)[C@H](CO)NC(=O)[C@H](CO)NC(=O)[C@H](CO)NC(=O)[C@@H](NC(=O)[C@@H]1CCCN1C(=O)[C@H](C)NC(=O)[C@H](CO)NC(=O)[C@H](Cc1ccc(O)cc1)NC(=O)[C@H](CO)NC(=O)[C@H](CO)NC(=O)[C@H](Cc1ccc(O)cc1)NC(=O)CCCC[C@@H]1SC[C@@H]2NC(=O)N[C@@H]21)C(C)C)C(=O)N[C@@H](CO)C(=O)N[C@H](C(=O)N[C@@H](CCCNC(=N)N)C(=O)N[C@@H](CCCNC(=N)N)C(=O)N[C@@H](CO)C(=O)N[C@@H](Cc1ccc(O)cc1)C(=O)N[C@@H](CC(=O)O)C(=O)N[C@@H](CO)C(=O)N[C@@H](CO)C(=O)N[C@@H](CO)C(=O)NCC(=O)N[C@@H](CO)C(N)=O)C(C)C", "note": "[Ser19Asp] (Biotin-YSSYSAPVSSSLSVRRSYDSSSGS-NH2)", "values": [{"measurement": "Cell penetration / internalization in T98G cells (in words)", "setting": "[1]", "result": "decreased internalization"}, {"measurement": "Peptide incorporation (% of cells)", "setting": "[1]", "result": "25.2±4.8 % of cells"}, {"measurement": "Effect on MT network of T98G / glioma cells (in words)", "setting": "[2]", "result": "not altered"}, {"measurement": "Disintegration of MT (% of cells)", "setting": "[2]", "result": "19.2±1.5 % of cells"}]}]}
